The values below come from ChEMBL document CHEMBL6078622, “Enhancing outer membrane permeability of tetracycline antibiotics in P. aeruginosa using TOB-CIP conjugates” (RSC Med Chem, 2024).

The MIC is the smallest concentration in the dilution series that meets the test's criterion for growth inhibition.

Data set [1] deals with Pseudomonas aeruginosa. Nature of the data set: Antibacterial activity against Pseudomonas aeruginosa PA095 assessed as inhibition of visible bacterial growth by CLSI based broth-microdilution method. It is filed as functional. (Broth dilution looks for growth in wells or tubes with falling amounts of substance.)
The test system of data set [2] is Pseudomonas aeruginosa. The data set can be described thus: Antibacterial activity against Pseudomonas aeruginosa PA264 assessed as inhibition of visible bacterial growth by CLSI based broth-microdilution method. It is filed as functional.
Data set [3] has as its system Pseudomonas aeruginosa. Nature of the data set: Antibacterial activity against Pseudomonas aeruginosa PA259 assessed as inhibition of visible bacterial growth by CLSI based broth-microdilution method. Type of data set: functional.
Data set [4] deals with Pseudomonas aeruginosa. Nature of the data set: Antibacterial activity against Pseudomonas aeruginosa PA200 assessed as inhibition of visible bacterial growth by CLSI based broth-microdilution method. Type of data set: functional.
Data set [5] deals with Pseudomonas aeruginosa. The data set can be described thus: Antibacterial activity against Pseudomonas aeruginosa PA262 assessed as inhibition of visible bacterial growth by CLSI based broth-microdilution method. It is filed as functional.
For data set [6], the system named is Pseudomonas aeruginosa. Nature of the data set: Antibacterial activity against Pseudomonas aeruginosa PA101243 assessed as inhibition of visible bacterial growth by CLSI based broth-microdilution method. Type of data set: functional.
The test system of data set [7] is Pseudomonas aeruginosa. Nature of the data set: Antibacterial activity against Pseudomonas aeruginosa PA114228 assessed as inhibition of visible bacterial growth by CLSI based broth-microdilution method. It is filed as functional.
Data set [8] has as its system Pseudomonas aeruginosa. The data set can be described thus: Antibacterial activity against Pseudomonas aeruginosa PA100036 assessed as inhibition of visible bacterial growth by CLSI based broth-microdilution method. It is filed as functional.
In data set [9] the test system is Escherichia coli. Nature of the data set: Antibacterial activity against Escherichia coli ATCC 25922 assessed as inhibition of visible bacterial growth by CLSI based broth-microdilution method. It is filed as functional.
The test system of data set [10] is HepG2. The data set can be described thus: Cytotoxicity against human HepG2 cells assessed as inhibition of cell vitality at 162 uM. It is filed as functional. The arrangement: scale not given: the % may be the effect or the level left.
For data set [11], the system named is Pseudomonas aeruginosa. Nature of the data set: Synergistic antibacterial activity against Pseudomonas aeruginosa PAO1 assessed as fold change in eravacycline MIC by checkerboard analysis relative to eravacycline alone. It is filed as functional.
Data set [12] relates to HEK293. The data set can be described thus: Cytotoxicity against HEK293 cells assessed as reduction in cell viability at 7 uM. Type of data set: toxicity, cell-based. The conditions noted are these: human, hek293, 7 µM.
The subject of data set [13] is Pseudomonas aeruginosa. The data set can be described thus: Synergistic antibacterial activity against Pseudomonas aeruginosa PAO1 assessed as fold change in doxycycline MIC by checkerboard analysis relative to doxycycline alone. It is filed as functional.
Data set [14] relates to Pseudomonas aeruginosa. The data set can be described thus: Synergistic antibacterial activity against Pseudomonas aeruginosa PAO1 assessed as fold change in minocycline MIC by checkerboard analysis relative to minocycline alone. Type of data set: functional.
Data set [15] relates to Acinetobacter baumannii. Nature of the data set: Antibacterial activity against Acinetobacter baumannii ATCC 17978 assessed as inhibition of visible bacterial growth by CLSI based broth-microdilution method. It is filed as functional.
For data set [16], the system named is Pseudomonas aeruginosa. The data set can be described thus: Antibacterial activity against Pseudomonas aeruginosa PAO1 assessed as inhibition of visible bacterial growth by CLSI based broth-microdilution method. It is filed as functional.
Data set [17] deals with HepG2. The data set can be described thus: Cytotoxicity against human HepG2 cells assessed as reduction in cell viability. Type of data set: functional.
In data set [18] the test system is Pseudomonas aeruginosa. The data set can be described thus: Synergistic antibacterial activity against Pseudomonas aeruginosa PAO1 assessed as fold change in tigecycline MIC by checkerboard analysis relative to Tigecycline alone. Type of data set: functional.
For data set [19], the system named is HepG2. The data set can be described thus: Cytotoxicity against human HepG2 cells assessed as reduction in cell viability at 400 uM. Type of data set: functional, cell-based.
In data set [20] the test system is HEK293. The data set can be described thus: Cytotoxicity against HEK293 cells assessed as reduction in cell viability at 162 uM. Type of data set: toxicity, cell-based. As to conditions: human, hek293, 162 µM.

≈ marks a conversion by molar mass, not a printed value. Calls of active or inactive are those of the source.

`C[C@H]1c2cccc(O)c2C(=O)C2=C(O)[C@]3(O)C(=O)C(C(N)=O)=C(O)[C@@H](N(C)C)[C@@H]3[C@@H](O)[C@@H]21` [DOXYCYCLINE ANHYDROUS]: the MIC in data set [1] was 64 µg/mL (≈ 144 µM); in data set [2], greater than 64 µg/mL; in data set [3] it was 64 µg/mL (≈ 144 µM); in data set [4] it was 1 µg/mL (≈ 2.25 µM); in [5], greater than 512 µg/mL; in data set [6], 16 µg/mL (≈ 36 µM). In addition, the MIC in data set [7] was 64 µg/mL (≈ 144 µM); in [8] it was greater than 128 µg/mL.

Regarding `Cl.Cl.Cl.Cl.Cl.Cl.NC[C@H]1O[C@H](O[C@H]2[C@H](OCCCCCCCCNC(=O)c3cn(C4CC4)c4cc(N5CCNCC5)c(F)cc4c3=O)[C@@H](O[C@H]3O[C@H](CO)[C@@H](O)[C@H](N)[C@H]3O)[C@H](N)C[C@@H]2N)[C@H](N)C[C@@H]1O`, the results for the MIC in data set [9], in data set [15] and in data set [16] were greater than 128 µg/mL, greater than 128 µg/mL and greater than 120 µg/mL, respectively. Besides, the Activity in data set [10] was 55%; in data set [12] it was “Non-toxic”; in data set [17], 69%. Besides, the “fold change (FC)” value in [11], in data set [13], in data set [14] and in [18] was 4 each time.

On to `CN(C)c1cc(NC(=O)CNC(C)(C)C)c(O)c2c1C[C@H]1C[C@H]3[C@H](N(C)C)C(O)=C(C(N)=O)C(=O)[C@@]3(O)C(O)=C1C2=O` [TIGECYCLINE], for which the MIC came out at 32 µg/mL (≈ 54.6 µM) in data set [1]; 32 µg/mL (≈ 54.6 µM) in [2]; 32 µg/mL (≈ 54.6 µM) in data set [3]; 1 µg/mL (≈ 1.71 µM) in data set [4]; 64 µg/mL (≈ 109 µM) in [5]; 8 µg/mL (≈ 13.7 µM) in data set [6]. For the same compound, the MIC in data set [7] and in data set [8] was 64 µg/mL (≈ 109 µM) throughout.

`CCCCCCCCCCCCNC(=O)c1cn(C2CC2)c2cc(N3CCNCC3)c(F)cc2c1=O.Cl`: the MIC in data set [9] is greater than 128 µg/mL; in [15], greater than 128 µg/mL; in [16] it was greater than 120 µg/mL.

As for `CN(C)c1ccc(O)c2c1C[C@H]1C[C@H]3[C@H](N(C)C)C(O)=C(C(N)=O)C(=O)[C@@]3(O)C(O)=C1C2=O` [MINOCYCLINE], the minimum inhibitory concentration (MIC) came to 64 µg/mL (≈ 140 µM) in [1]; 128 µg/mL (≈ 280 µM) in data set [2]; 128 µg/mL (≈ 280 µM) in data set [3]; 0.5 µg/mL (≈ 1.09 µM) in data set [4]; 256 µg/mL (≈ 560 µM) in data set [5]; 8 µg/mL (≈ 17.5 µM) in [6]. Besides, the MIC in [7] is 256 µg/mL (≈ 560 µM); in data set [8], 128 µg/mL (≈ 280 µM).

For `CN(C)[C@@H]1C(O)=C(C(N)=O)C(=O)[C@@]2(O)C(O)=C3C(=O)c4c(O)c(NC(=O)CN5CCCC5)cc(F)c4C[C@H]3C[C@@H]12` [ERAVACYCLINE], the MIC in data set [1] is 32 µg/mL (≈ 57.3 µM); in [2], 32 µg/mL (≈ 57.3 µM); in [3] it was 32 µg/mL (≈ 57.3 µM); in data set [4], 0.5 µg/mL (≈ 0.895 µM); in data set [5], 64 µg/mL (≈ 115 µM); in [6] it was 8 µg/mL (≈ 14.3 µM). Also, the values for the MIC in data set [7] and in data set [8] were 16 µg/mL (≈ 28.6 µM) and 32 µg/mL (≈ 57.3 µM), respectively.

As to `CC(=O)NCCCCCCCCCCCCO[C@@H]1[C@@H](O[C@H]2O[C@H](CO)[C@@H](O)[C@H](N)[C@H]2O)[C@H](N)C[C@H](N)[C@H]1O[C@H]1O[C@H](CN)[C@@H](O)C[C@H]1N.Cl.Cl.Cl.Cl.Cl`, the MIC in data set [9] was greater than 128 µg/mL; in data set [15], greater than 128 µg/mL; in data set [16], greater than 120 µg/mL. In addition, the results for the “fold change (FC)” value in [13], in data set [14] and in [18] were 8, 4 and 1, respectively.

On to `Cl.Cl.Cl.Cl.Cl.Cl.NC[C@H]1O[C@H](O[C@H]2[C@H](OCc3ccc(-c4ccc(CNC(=O)c5cn(C6CC6)c6cc(N7CCNCC7)c(F)cc6c5=O)cc4)cc3)[C@@H](O[C@H]3O[C@H](CO)[C@@H](O)[C@H](N)[C@H]3O)[C@H](N)C[C@@H]2N)[C@H](N)C[C@@H]1O`, for which the MIC in [9] is greater than 128 µg/mL; in data set [15], greater than 128 µg/mL; in [16] it was greater than 120 µg/mL. Also, the Activity is 40% in [10], “Non-toxic” in data set [12], 88% in data set [17] and 27% in [20]. The “fold change (FC)” value in [11], in data set [13], in [14] and in [18] was 16 throughout. In data set [19], the result was Active.

As to `NC[C@H]1O[C@H](O[C@H]2[C@H](O)[C@@H](O[C@H]3O[C@H](CO)[C@@H](O)[C@H](N)[C@H]3O)[C@H](N)C[C@@H]2N)[C@H](N)C[C@@H]1O` [TOBRAMYCIN], the MIC stood at 2 µg/mL (≈ 4.28 µM) in data set [9], 0.5 µg/mL (≈ 1.07 µM) in data set [15] and 0.5 µg/mL (≈ 1.07 µM) in data set [16].

For `Cl.Cl.Cl.Cl.Cl.Cl.NC[C@H]1O[C@H](O[C@H]2[C@H](OCCOCCOCCOCCNC(=O)c3cn(C4CC4)c4cc(N5CCNCC5)c(F)cc4c3=O)[C@@H](O[C@H]3O[C@H](CO)[C@@H](O)[C@H](N)[C@H]3O)[C@H](N)C[C@@H]2N)[C@H](N)C[C@@H]1O`, the values for the MIC in [9], in data set [15] and in data set [16] were greater than 128 µg/mL, greater than 128 µg/mL and greater than 120 µg/mL, respectively. Also, the Activity in [10] is recorded as 60%; in [12], “Non-toxic”; in data set [17], 60%.
